Experimental data reported in patent US4778817A, “Naphthyl imidazolyl compounds and pharmaceutical compositions” (priority 1985, dated 1988).
Where a name gives a salt, the structure may show the parent alone.

Experiments:
human platelets = assay: Inhibition of the arachidonic acid-induced aggregation of human platelets in vitro; assay type: cell-based; conditions: human platelet-rich plasma; 2×10^-4 M arachidonic acid; preincubation 10 min at 37° C.
Description: 1. Inhibition of the arachidonic acid-induced aggregation of human platelets in vitro.
Blood is taken, by careful cannulation of the antecubital vein, from apparently healthy male and female volunteers, who have taken no medicaments in the preceding 10-day period, and is immediately stabilized with sodium citrate (ad. 0.38%). Platelet-rich plasma (PRP) is obtained in the supernatant by centrifugation at 140×g for 15 minutes, and the platelet content of this should be in the range 2.5-3.5×10^8 /ml (Coulter counter). The platelet aggregation is followed optically by measurement of the transmission of light in a Born aggregometer. The total volume of the test mix is 0.25 ml. The preincubation time at 37° C. with the test product is 10 min, and aggregation is then induced with 2×10^-4 M arachidonic acid. The test product is, as a rule, tested in five different concentrations in the PRP from three different donors. Dose-effect curves are drawn from the maximal aggregation amplitudes in each case, and the IC50 values* are determined graphically. The measurements are carried out in the period 1-6 hours after blood sampling. […]
The following IC50 values for the inhibition of the arachidonic acid-induced aggregation of human platelets in vitro were determined by the method described above for the compounds according to the invention: […]

[1] = system: Thrombin-induced TXA2 release; assay: Thrombin-induced TXA2 release in platelet-rich human plasma in vitro (TXB2 determined radioimmunologically); assay type: cell-based; conditions: 0.5 h, relative to without test substance (=100%); for activity at 1 µM: test substance 10^-6 mol/l; for activity at 0.1 µM: test substance 10^-7 mol/l
Description: 2. Thrombin-induced TXA2 release in platelet-rich human plasma in vitro
Blood is taken, by careful cannulation of the antecubital vein, from apparently healthy male and female volunteers, who have taken no medicaments in the preceding 10-day period, and is immediately stabilized with sodium citrate (ad. 0.38%). Platelet-rich plasma (PRP) is obtained in the supernatant by centrifugation at 140×g for 15 minutes, and the platelet content of this should be in the range 2.5-3.5×10^8 /ml. The platelets are sedimented by renewed centrifugation (10 min at 2,000×g), and then resolubilized in Tyrode's solution (about 7×10^7 platelets/ml, total volume per measurement 0.5 ml). After addition of test substance, the mixture is incubated at 37° C. for 10 min, and then 7.2×10^-7 M arachidonic acid and 0.5 U thrombin are added, and incubation is carried out at 37° C. for 30 min. This is stopped in an ice bath and, after addition of tracer and TXB2 -specific antibodies (NEN, Dreieich), the TXB2 content is determined radioimmunologically (TXA2 is unstable under the experimental conditions and thus cannot be measured. The stable hydrolysis product TXB2 is measured in its place). The measured variable is the relative TXB2 content in the platelet incubations from two or three different donors with and without (=100%) the test substance.
The following figures for the TXB2 release after administration of the test substance were determined, for example, for the compounds according to the invention by the method described above: […]

laser-induced thrombosis = assay: Inhibition of laser-induced thrombosis; assay type: in vivo, Sprague-Dawley rats; conditions: one hour before start, rat mesentery arterioles
Description: 3. Inhibition of laser-induced thrombosis
The investigations of the compounds according to the invention in the model of laser-induced thrombosis are carried out on male or female Sprague-Dawley rats with a body weight of about 200 g. The animals to be investigated are premedicated s.c. with 0.1 mg of atropine sulfate in solution, and anesthetized i.p. with 100 mg of ketamine hydrochloride and 4 mg of xylazine per kg of body weight. Arterioles from the mesentery, with a diameter of 12-25 μm, are used for the investigation. During the measurement, the exposed mesentery is hyperfused with warmed physiological NaCl (37° C.) or is covered with degassed liquid paraffin. The beam of a 4 W argon laser (supplied by Spectra Physics, Darmstadt, FRG) is introduced coaxially into the inverted ray path of a microscope (ICM 405, LD-Epilan 40/0.60; supplied by Zeiss, Oberkochen, FRG) by means of a ray adaptation and adjustment system (supplied by BTG, Munich, FRG). The wavelength used is 514.5 nm, with an energy above the objective of 40 mW. The single-shot exposure time is 1/15 sec. The diameter of the effective laser beam on the vessel is 10 μm, and with repeated exposure the next shot takes place 5 μm upstream in each case, directly on the vessel wall. All the measurement procedures are filmed by video camera (Sony, Trinicon tube) and stored in a recorder (Sony, U-matic 3/4). A survey image of the terminal vessels which are to be investigated is provided by the transillumination method using the same microscope with low magnification (LD-Epilan 8/0.20). A video-analyzer and a correlator are used to determine the rate of flow in the arterioles under investigation. […]
The number of shots needed to induce a defined thrombus was counted. The frequency of the laser flashes was one lesion every 2 minutes, all the thrombi with a minimum size of 1/4 of the vessel radius which were formed during the observation period being counted and measured. The results of the experiment were statistically analyzed using the X^2 test (L. Cavalli-Sforza, Biometrie, Stuttgart, 1969, page 49 et seq.).

Row | Compound | IC50 (human platelets) [µM] | activity at 1 µM [1] [%] | activity at 0.1 µM [1] [%] | Number of laser shots to form a thrombus (compared with control) (laser-induced thrombosis; 1 mg/kg p.o.) | Number of laser shots to form a thrombus (compared with control) (laser-induced thrombosis; 5 mg/kg p.o.) | Number of laser shots to form a thrombus (compared with control) (laser-induced thrombosis; 10 mg/kg p.o.) | activity at 0.01 µM ([1]; test substance 10^-8 mol/l) [%]
1 | CC(c1ccc2cc(C(=O)O)ccc2c1)n1ccnc1 (stereo not shown) [Example 2, 6-[1-(1-Imidazolyl)ethyl]-2-naphthoic acid hydrochloride] | 3 | 31 | 55 | – | – | – | –
2 | Cc1cncn1Cc1ccc2cc(C(=O)O)ccc2c1.Cl [Example 4, 6-(5-Methyl-1-imidazolyl)methyl-2-naphthoic acid hydrochloride] | 0.54 | 9 | 19 | +16% | +53% | +96% | 98
